Experimental data taken from the NIST ThermoML archive (doi:10.1021/acs.jced.8b00547).

Assays:
[1] = 101 kPa, Liquid; for speed of sound: Single path-length method; for mass density: Vibrating tube method
[2] = refractive index (Na D-line) (dimensionless); details: 101 kPa, Liquid, Standard Abbe refractometry
[3] = refractive index (Na D-line) (dimensionless); xn = mol fraction of the nth substance listed; details: 101 kPa, Liquid, Standard Abbe refractometry, x2 = 0
[4] = xn = mol fraction of the nth substance listed; details: 101 kPa, Liquid, x2 = 0; for speed of sound: Single path-length method; for mass density: Vibrating tube method

CCC(C)O (stereo not given) [butan-2-ol]
Details | mass density, [1] [kg/m3] | refractive index, [2] | speed of sound, [1] [m/s]
298.15 K | 802.4 | 1.39474 | 1212
308.15 K | 793.86 | 1.39011 | 1175.8
318.15 K | 785.26 | 1.38547 | 1139.5
328.15 K | 775.73 | 1.38022 | 1102.3
338.15 K | 765.75 | 1.37621 | 1064.5

CCC(C)O (stereo not given) [butan-2-ol] + CCCC(C)=O
Details | mass density, [4] [kg/m3] | refractive index, [3] | speed of sound, [4] [m/s]
298.15 K | 802.4 | 1.39474 | 1212
308.15 K | 793.86 | 1.39011 | 1175.8
318.15 K | 785.26 | 1.38547 | 1139.5
328.15 K | 775.73 | 1.38022 | 1102.3
338.15 K | 765.75 | 1.37621 | 1064.5

CCCC(C)=O [pentan-2-one]
Details | mass density, [1] [kg/m3] | refractive index, [2] | speed of sound, [1] [m/s]
298.15 K | 802.09 | 1.38782 | 1216
308.15 K | 792.32 | 1.38284 | 1174.4
318.15 K | 782.44 | 1.37782 | 1133.3
328.15 K | 772.43 | 1.3728 | 1093.6
338.15 K | 762.27 | 1.36764 | 1053.8

CC(C)O [propan-2-ol]
Details | mass density, [1] [kg/m3] | refractive index, [2] | speed of sound, [1] [m/s]
298.15 K | 781.1 | 1.37522 | 1138.5
308.15 K | 772.51 | 1.37083 | 1103.2
318.15 K | 763.51 | 1.36622 | 1068.1
328.15 K | 754.19 | 1.36146 | 1032.6
338.15 K | 743.66 | 1.35637 | 997.33

CC(C)O [propan-2-ol] + CCCC(C)=O
Details | mass density, [4] [kg/m3] | refractive index, [3] | speed of sound, [4] [m/s]
298.15 K | 781.1 | 1.37522 | 1138.5
308.15 K | 772.51 | 1.37083 | 1103.2
318.15 K | 763.51 | 1.36622 | 1068.1
328.15 K | 754.19 | 1.36146 | 1032.6
338.15 K | 743.66 | 1.35637 | 997.33
